Values of other authors, collected in article PMC10202811 (Nature Medicine, 2023).

Key:
ALK-driven malignancies = test system: ALK-driven malignancies; design: method as in PMID 34780709; conditions: children, 6/30; cited from earlier work
[1] = test system: inflammatory myofibroblastic tumors; conditions: cited from earlier work

Structure (SMILES): Cc1cc(Nc2ncc(Cl)c(Nc3ccccc3S(=O)(=O)C(C)C)n2)c(OC(C)C)cc1C1CCNCC1 [ceritinib]
- RR (complete/partial) (ALK-driven malignancies): 20%

Structure (SMILES): C[C@@H](Oc1cc(-c2cnn(C3CCNCC3)c2)cnc1N)c1c(Cl)ccc(F)c1Cl [crizotinib]
- RR [1]: 86%
